US20240308990A1, “CRYSTAL FORM OF ENTRECTINIB AND PREPARATION METHOD THEREFOR” (QILU PHARMACEUTICAL CO., LTD., priority 2021, published 2024)
≈ marks a conversion by molar mass, not a printed value. Read-outs that look alike come from different tables or passages of the source.

Columns and labels:
[1] = background statement; cited from earlier work
[2] = Chemical stability test (affecting factors, HPLC purity); assay type: physicochemical; conditions: for Chemical stability (in words): after a 10-day affecting factor test
Text: For the specific method for testing the stability, reference could be made to high performance liquid chromatography in General Chapter 0512, Chinese Pharmacopoeia, Volume IV, 2015 Edition.

[3] = Crystal form stability test (affecting factors); assay type: physicochemical; conditions: for Crystal form stability (in words): after a 10-day affecting factor test
Description: The experimental method was as follows: a ground sample (100 mg) was filled in a groove of a glass plate, the plane of the sample was made to the same level as the glass surface by using a glass slide, the sample was placed in a PANalytical X-ray powder diffractometer, and a 40 kV and 40 mA copper X-ray source was used, with a scanning range of 3-45° (2θ) and a scanning rate of 8°/min. The scanning error is typically ±0.2 degrees (2θ).

[4] = Preparation stability of crystal forms (mixing and slurrying, X-RPD); assay type: physicochemical; conditions: for Converted crystal form: 0.1 g mixed with 0.1 g crystal form A of Example 2, slurried in acetone/water at room temperature for 10 h
Description: The mixing and slurring method was as follows: 0.1 g of each of the two crystal forms to be mixed was weighed and added into a single-necked flask. 2 mL of acetone and 1 mL of water were added. The mixture was stirred and slurried at room temperature for 10 h, filtered, and dried in air at room temperature to obtain crystals. The crystal forms were determined by X-RPD.

[5] = Crushing, static electricity and fluidity test; assay type: physicochemical; conditions: for Static electricity: reference forms: after crushing
Text: (§1) The determination results are as follows.

[6] = Crystal microscopic morphology by scanning electron microscope; assay type: physicochemical
Text: The experimental method was as follows: an appropriate amount of test sample was taken, uniformly spread on a conductive adhesive tape, sprayed with gold, and observed under an electron microscope.
as §1

[7] = Solubility comparison of crystals; assay type: physicochemical; conditions: for Solubility in 95% ethanol / Solubility in aqueous solution with pH = 1 / solubility at 20 min: 25° C., dissolution time 20 min; for Solubility compared with crystal form 2 and crystal form 4: 95% ethanol and aqueous solution with pH=1; for solubility at 20 min: thermodynamic from solid
Description: • Dissolution temperature: 25° C. • Dissolution time: 20 min

[8] = High humidity condition 90% RH, 10 days
[9] = High temperature condition 60° C., 10 days
[10] = Light condition 5000 lux/h, 10 days

## CN1CCN(c2ccc(C(=O)Nc3n[nH]c4ccc(Cc5cc(F)cc(F)c5)cc34)c(NC3CCOCC3)c2)CC1 [Crystal form 1 of Reference Example 1, entrectinib]
[1]
  Crystal form stability (in words): unstable and is easy to be converted into another crystal form
[2]; 0 day
  Purity (%): 99.21%
[2]; [8]
  Purity (%): 99.20%
[2]; [9]
  Purity (%): 99.20%
[2]; [10]
  Purity (%): 99.19%
[3]; 0 day
  Crystal form found: form 1
[3]; [8]
  Crystal form found: form 1
[3]; [9]
  Crystal form found: form 2
[3]; [10]
  Crystal form found: form 1
[3]; listed as crystal form 1 in Reference Example 1
  Crystal form stability (in words): unstable and shows crystal form conversion under a high temperature condition

## CN1CCN(c2ccc(C(=O)Nc3n[nH]c4ccc(Cc5cc(F)cc(F)c5)cc34)c(NC3CCOCC3)c2)CC1 [Crystal form 2 of Reference Example 2, entrectinib]
[1]
  Solubility (in words): poor solubility
[4]
  Converted crystal form: Crystal form A
[5]
  Fluidity: crushing, and poor fluidity
  Static electricity: relatively strong static electricity after
[5]; listed as crystal form 2
  Fluidity: poor fluidity
  Static electricity: relatively strong static electricity after being crushed
[2]; 0 day
  Purity (%): 99.34%
[2]; [8]
  Purity (%): 99.33%
[2]; [9]
  Purity (%): 99.34%
[2]; [10]
  Purity (%): 99.33%
[6]
  electron microscopy results of the crystal: length of larger crystals/particles: about 85 μm
  electron microscopy results of the crystal: shape and size uniformity: Sheet-shaped, fragile, non-uniform
[3]; 0 day
  Crystal form found: form 2
[3]; [8]
  Crystal form found: form 2
[3]; [9]
  Crystal form found: form 2
[3]; [10]
  Crystal form found: form 2
[7]
  Solubility in 95% ethanol: 21.1 mg/mL (≈ 37.6 mM)
  Solubility in aqueous solution with pH = 1: 19.1 mg/mL

## CN1CCN(c2ccc(C(=O)Nc3n[nH]c4ccc(Cc5cc(F)cc(F)c5)cc34)c(NC3CCOCC3)c2)CC1 [Crystal form 4 of Reference Example 3, entrectinib]
[4]
  Converted crystal form: Crystal form A
[2]; 0 day
  Purity (%): 99.29%
[2]; [8]
  Purity (%): 99.29%
[2]; [9]
  Purity (%): 99.28%
[2]; [10]
  Purity (%): 99.28%
[3]; 0 day
  Crystal form found: form 4
[3]; [8]
  Crystal form found: form 4
[3]; [9]
  Crystal form found: form 4
[3]; [10]
  Crystal form found: form 4
[7]
  Solubility in 95% ethanol: 20.5 mg/mL (≈ 36.6 mM)
  Solubility in aqueous solution with pH = 1: 18.8 mg/mL

## CN1CCN(c2ccc(C(=O)Nc3n[nH]c4ccc(Cc5cc(F)cc(F)c5)cc34)c(NC3CCOCC3)c2)CC1 [Crystal form A of Example 2, N-[5-(3,5-difluorobenzyl)-1H-indazol-3-yl]-4-(4-methylpiperazin-1-yl)-2-[(tetrahydro-2H-pyran-4-yl)amino]benzamide]
[4]; acetone/water system, room temperature, 10 h
  Crystal conversion in acetone/water slurry (in words): will not be subjected to crystal conversion
[5]
  Fluidity: good fluidity
[5]; listed as crystal form A
  Fluidity: good fluidity
[2]; 0 day
  Purity (%): 99.92%
[2]; [8]
  Purity (%): 99.92%
[2]; [9]
  Purity (%): 99.91%
[2]; [10]
  Purity (%): 99.91%
[2]
  Chemical stability (in words): good chemical stability
[6]
  electron microscopy results of the crystal: length of larger crystals/particles: ~20 μm
  electron microscopy results of the crystal: shape and size uniformity: Rod-shaped, relatively uniform size,
[3]; 0 day
  Crystal form found: form A
[3]; [8]
  Crystal form found: form A
[3]; [9]
  Crystal form found: form A
[3]; [10]
  Crystal form found: form A
[3]
  Crystal form stability (in words): good crystal form stability
[7]
  Solubility compared with crystal form 2 and crystal form 4: better solubility
[7]; 95% ethanol, 25 °C, organic solvent or mixture, read-out: Solubility in 95% ethanol
  solubility at 20 min: 28.4 mg/mL (≈ 50.7 mM)
[7]; aqueous solution with pH 1, 25 °C, pH 1, simulated gastric fluid, read-out: Solubility in aqueous solution with pH = 1
  solubility at 20 min: 22.6 mg/mL (≈ 40.3 mM)

## CN1CCN(c2ccc(C(=O)Nc3n[nH]c4ccc(Cc5cc(F)cc(F)c5)cc34)c(NC3CCOCC3)c2)CC1 [Crystal form AZT-A of Reference Example 4] [entrectinib]
[4]
  Converted crystal form: Crystal form A
[5]
  Fluidity: poor fluidity
  Static electricity: strong static electricity after crushing, and
[5]; listed as crystal form AZT-A
  Fluidity: poor fluidity
  Static electricity: relatively strong static electricity after being crushed
[6]
  electron microscopy results of the crystal: length of larger crystals/particles: about 700 μm
  electron microscopy results of the crystal: shape and size uniformity: Irregular bulk-shaped, non-uniform

## CN1CCN(c2ccc(C(=O)Nc3n[nH]c4ccc(Cc5cc(F)cc(F)c5)cc34)c(NC3CCOCC3)c2)CC1 [Crystal form AZT-B of Reference Example 5] [entrectinib]
[4]
  Converted crystal form: Crystal form A
[5]
  Fluidity: poor fluidity
  Static electricity: strong static electricity after crushing, and
[5]; listed as crystal form AZT-B
  Fluidity: poor fluidity
  Static electricity: relatively strong static electricity after being crushed
[6]
  electron microscopy results of the crystal: length of larger crystals/particles: more than about 1000 μm
  electron microscopy results of the crystal: shape and size uniformity: Irregular bulk-shaped, non-uniform

## CN1CCN(c2ccc(C(=O)Nc3n[nH]c4ccc(Cc5cc(F)cc(F)c5)cc34)c(NC3CCOCC3)c2)CC1 [Crystal form AZT-E of Reference Example 6] [entrectinib]
[4]
  Converted crystal form: Crystal form A
[5]
  Fluidity: poor fluidity
  Static electricity: strong static electricity after crushing, and
[5]; listed as crystal form AZT-E
  Fluidity: poor fluidity
  Static electricity: relatively strong static electricity after being crushed
[6]
  electron microscopy results of the crystal: length of larger crystals/particles: more than about 1000 μm
  electron microscopy results of the crystal: shape and size uniformity: Irregular bulk-shaped, non-uniform

## CN1CCN(c2ccc(C(=O)Nc3n[nH]c4ccc(Cc5cc(F)cc(F)c5)cc34)c(NC3CCOCC3)c2)CC1 [Crystal form B of Example 5, N-[5-(3,5-difluorobenzyl)-1H-indazol-3-yl]-4-(4-methylpiperazin-1-yl)-2-[(tetrahydro-2H-pyran-4-yl)amino]benzamide]
[5]
  Fluidity: good fluidity
[5]; listed as crystal form B
  Fluidity: good fluidity
[2]; 0 day
  Purity (%): 99.91%
[2]; [8]
  Purity (%): 99.90%
[2]; [9]
  Purity (%): 99.91%
[2]; [10]
  Purity (%): 99.91%
[2]
  Chemical stability (in words): good chemical stability
[6]
  electron microscopy results of the crystal: length of larger crystals/particles: ~10 μm
  electron microscopy results of the crystal: shape and size uniformity: Rod-shaped, relatively uniform size,
[3]; 0 day
  Crystal form found: form B
[3]; [8]
  Crystal form found: form B
[3]; [9]
  Crystal form found: form B
[3]; [10]
  Crystal form found: form B
[3]
  Crystal form stability (in words): good crystal form stability
[7]
  Solubility in 95% ethanol: 26.2 mg/mL (≈ 46.7 mM)
  Solubility in aqueous solution with pH = 1: 21.0 mg/mL
  Solubility compared with crystal form 2 and crystal form 4: better solubility
